The subject of series [1] is right and left humeri (radii and ulnae) of rat fetus. In words: Bone resorption inhibition: 45Ca release from fetal rat bone in culture (method of Raisz). The settings on record: for activity at 10 µg/mL: Rattus norvegicus, 48 h, read-out: 45Ca released (% of control value). The format is cell-based, Sprague-Dawley rat.
Experimental: Thus, a Sprague-Dawley rat at day 19 of pregnancy was subcutaneously dosed with 50 μCi of ^45 Ca (a radioisotope of calcium, in CaCl2). On the next day, the animal was laparotomized and the fetuses were removed aseptically. The right and left humeri (radii and ulnae) of each rat fetus were dissected from the body under the dissection microscope. The connective tissue and cartilages were removed as far as possible to prepare bone culture specimens. Each piece of bone was incubated in 0.6 ml of BGJb medium Fitton-Jackson modification (the tradename owned by GIBCO Laboratories, U.S.A.) containing 2 mg/ml of bovine serum albumin at 37° C. for 24 hours. […] The radioactivities of ^45 Ca in the culture medium and bone were determined and the ratio (%) of ^45 Ca released from the bone to the medium was calculated according to the following formula. […] A=ratio (%) of ^45 Ca released from the bone to the medium B=^45 Ca count in the medium
C=^45 Ca count in the bone
The bones from the fetuses of the same litter were similarly incubated without addition of the test compound for two days and served as controls.
The values for 5 bones per group were expressed in mean. The ratio (%) of this value for the treatment group to the control value was determined.
The test system of another series is mice. In words: Oral toxicity in mice. The format is in vivo. To be noted: 300 mg/kg. The source says:
The compound (I) and salt according to the present invention has excellent bone resorption inhibitory activity. Thus, they have the action to inhibit the dissolution and diminution of bone in the body. Furthermore, compound (I) and salts thereof have bone formation promoting activity.

Series [2] deals with oophorectomized Sprague-Dawley rats, right femur. In words: Treatment of osteoporosis in oophorectomized rats (femur bone density, dry weight, ashes). The format is in vivo. To be noted: daily dose 100 mg/kg orally; for Ashes / Dry weight: 18 doses, distal 1/3 of right femur. How it is done: Study on Treatment of Osteoporosis
Oophorectomy was performed on Sprague-Dawley rats at 10 weeks of age and starting from the following day, the rats were orally dosed with the test compound 6 days a week for 3 weeks, or a total of 18 days. On the day following the last dosing, the right femur was removed from each rat and subjected to soft X-ray photography with a soft X-ray apparatus (Softex CSM, Softex). Using a microdensitometer (PDM-5, Konica Medical), the transverse section of the femur on the soft X-ray film was scanned at a point one-fifth from the distal end (metaphysis) and from the density wave pattern, bone density was calculated according to the microdensitometric method described by Inoue et al. [Journal of Japanese Orthopedic Association (J Jpn. Orthop. Ass.) 57, 1923 (1983)].
After soft X-ray photographing, the 1/3 distal part of the femur was sectioned off at right angles with the major axis. After the bone marrows were washed off with a rinse pump, the femur section was put into a porcelain crucible, placed in a oven and dried at 110° C. for 24 hours. The dry weight was then determined.
The porcelain crucible containing the bone was transferred to a muffle furnace (FP-41, Yamato Chemicl) and heated at 500° C. for 3 hours and at 800° C. for 2 hours for calcification of the bone and the ashes were weighed.
The mean ± standard errors of the measured values for the right femurs of 7 rats per group were determined.

Where [3] appears, read: final concentration 10 μg/ml, two additional days at 37° C., mean of 5 bones per group, lower = more inhibition.
Where [4] appears, read: Table 4, oophorectomy control 76.3, sham 85.7.
[5] abbreviates: Table 4, oophorectomy control 114.2, sham 131.4.

Like-named read-outs stand apart in the source and are kept apart here.

In the case of `CCOP(=O)(Cc1ccc(NC(=O)[C@@H]2S[C@@H](C)C(=O)c3cc(C4CCCCC4)ccc32)cc1)OCC` (relative stereo) [Example 23], in series [1], the activity at 10 µg/mL was 65%.
Consider `O=C1CSC(C(=O)O)c2ccc(Cl)cc21` (stereo not drawn) [Example 1, 6-chloro-3,4-dihydro-1H-2-benzothiopyran-4-one-1-carboxylic acid], for which the activity at 10 µg/mL in series [1] (setting [3]) was 84%.
On to `O=C1CSC(C(=O)Nc2cccnc2)c2ccc(C3CCCCC3)cc21` (stereo not drawn) [Example 10, 6-cyclohexyl-N-(3-pyridyl)-3,4-dihydro-1H-2-benzothiopyran-4-one-1-carboxamide], for which, in series [1] (setting [3]), the activity at 10 µg/mL worked out at 62%.
In the case of `O=C1CSC(C(=O)Nc2nccs2)c2ccc(C3CCCCC3)cc21` (stereo not drawn) [Example 12], in series [1] (setting [3]), the activity at 10 µg/mL was found to be 84%.
Consider `COc1ccc(-c2csc(NC(=O)C3SCC(=O)c4cc(C5CCCCC5)ccc43)n2)cc1OC` (stereo not drawn) [Example 14], for which the activity at 10 µg/mL in series [1] (setting [3]) was determined as 81%.
With `O=C1CSC(C(=O)N2CCN(c3ccc(F)cc3)CC2)c2ccc(C3CCCCC3)cc21` (stereo not drawn) [Example 18], in the series with mice, the death result is recorded as “no death was encountered”.
With `O=C1CSC(C(=O)Nc2ccc3c(c2)OCO3)c2ccc(C3CCCCC3)cc21` (stereo not drawn) [Example 19], the activity at 10 µg/mL in series [1] (setting [3]) came out at 70%.
For the compound `O=C1CSC(C(=O)Nc2ccc(Cl)cc2)c2ccc(C3CCCCC3)cc21` (stereo not drawn) [Example 21], the activity at 10 µg/mL in series [1] (setting [3]) stood at 73%.
In the case of `CCOP(=O)(Cc1ccc(NC(=O)C2SCC(=O)c3cc(C4CCCCC4)ccc32)cc1)OCC` (stereo not drawn) [Example 22], the activity at 10 µg/mL in series [1] was 57%. The compound also showed an Ashes in series [2] (Table 2, oophorectomy control 74.3, sham 80.0) of 82.4 mg. In addition, in series [2] (Table 2, oophorectomy control 107.7, sham 116.2), the Dry weight was 120.0 mg. The Bone density in series [2] (Table 2, 6 days a week for 3 weeks, femur metaphysis, oophorectomy control 1.062, sham 1.304) came to 1.336. Besides, the death result with mice is listed as “no death was encountered”.
Turning to `COc1ccc(NC(=O)C2SCC(=O)c3cc4c(cc32)CCCC4)cc1OC` (stereo not drawn) [Example 28], the activity at 10 µg/mL in series [1] (setting [3]) was found to be 79%.
Same read-out and setting: as for `O=C1CSC(C(=O)N2CCN(c3ccc(F)cc3)CC2)c2cc3c(cc21)CCCC3` (stereo not drawn) [Example 30], the figure is 75%.
`COP(=O)(OC)c1ccc(NC(=O)C2SCC(=O)c3cc4c(cc32)CCCC4)cc1` (stereo not drawn) [Example 31]: in series [1], the activity at 10 µg/mL came to 64%.
Still for that read-out and setting: next, `CCOP(=O)(OCC)c1ccc(NC(=O)C2SCC(=O)c3cc4c(cc32)CCCC4)cc1` (stereo not drawn) [Example 33]: 53%; `CCOP(=O)(Cc1ccc(NC(=O)C2SCC(=O)c3cc4c(cc32)CCCC4)cc1)OCC` (stereo not drawn) [Example 35]: 58%.
With `CC(C)OP(=O)(Cc1ccc(NC(=O)C2SCC(=O)c3cc4c(cc32)CCCC4)cc1)OC(C)C` (stereo not drawn) [Example 36], the activity at 10 µg/mL in series [1] worked out at 73%.
On to `CCOP(=O)(OCC)c1ccc(NC(=O)C2SCC(=O)c3cc(Cl)ccc32)cc1` (stereo not drawn) [Example 46], for which the activity at 10 µg/mL in series [1] is 76%.
As for `CCCOP(=O)(OCCC)c1ccc(NC(=O)C2SCC(=O)c3cc4c(cc32)OCCO4)cc1` (stereo not drawn) [Example 50], in series [1], the activity at 10 µg/mL came out at 73%.
For `COc1ccc(CCN(C)C(=O)C2SCC(=O)c3cc(C4CCCCC4)ccc32)cc1OC` (stereo not drawn) [Example 55], the activity at 10 µg/mL in series [1] (setting [3]) was 78%.
As to `CCOP(=O)(OCC)c1ccc(NC(=O)C2Cc3ccc(C4CCCCC4)cc3C(=O)CS2)cc1` (stereo not drawn) [Example 56, 7-cyclohexyl-N-(4-diethoxyphosphorylphenyl)-1,2,4,5-tetrahydro-3-benzothiepin-5-one-2-carboxamide], the activity at 10 µg/mL in series [1] was found to be 76%.
Regarding `O=C(Nc1ccc2c(c1)OCO2)C1SCC(O)c2ccc(C3CCCCC3)cc21` (stereo not drawn) [Example 59, 7-cyclohexyl-N-(3,4-methylenedioxyphenyl)-c-4-hydroxy-3,4-dihydro-1H-2-benzothiopyran-r-1-carboxamide], the “45Ca released (% of control value)” value in series [1] (final concentration 10 μg/ml, two additional days at 37° C., mean of 5 bones per group, lower = more inhibition, 2880 min) was 64 % of control value.
Consider `CCOP(=O)(Cc1ccc(NC(=O)C2SCC(=O)c3cc(C4CCCC4)ccc32)cc1)OCC` (stereo not drawn) [Example 132], for which, in series [1], the activity at 10 µg/mL was determined as 57%.
With `CCOP(=O)(Cc1ccc(NC(=O)C2SCC(=O)c3cc(C4CCCCCC4)ccc32)cc1)OCC` (stereo not drawn) [Example 138], the activity at 10 µg/mL in series [1] is 63%.
Consider `CCOP(=O)(Cc1ccc(NC(=O)C2SCC(=O)c3cc(C)ccc32)cc1)OCC` (stereo not drawn) [Example 140], for which the activity at 10 µg/mL in series [1] was determined as 61%.
As to `CCOP(=O)(OCC)c1ccc(NC(=O)C2SCC(=O)c3cc(C(C)C)ccc32)cc1` (stereo not drawn) [Example 141], the activity at 10 µg/mL in series [1] was 57%.
Consider `CCOP(=O)(OCC)c1ccc(NC(=O)C2SCC(=O)c3cc(C(C)(C)C)ccc32)cc1` (stereo not drawn) [Example 143], for which the activity at 10 µg/mL in series [1] was 44%.
Still for that read-out and setting: as for `CCOP(=O)(CCc1ccc(NC(=O)C2SCC(=O)c3cc(C(C)(C)C)ccc32)cc1)OCC` (stereo not drawn) [Example 144], the figure is 52%.
On to `CCOP(=O)(Cc1ccc(NC(=O)C2SCC(=O)c3cc(C(C)(C)CC)ccc32)cc1)OCC` (stereo not drawn) [Example 146], for which the activity at 10 µg/mL in series [1] was 62%. The same compound had an Ashes in series [2] (Table 3, oophorectomy control 74.3, sham 88.3) of 84.1 mg. The same compound returned a Dry weight in series [2] (Table 3, oophorectomy control 112.3, sham 130.4) of 128.2 mg.
Consider `CCOP(=O)(Cc1ccc(NC(=O)C2SCC(=O)c3c(C)ccc(C)c32)cc1)OCC` (stereo not drawn) [Example 150], for which, in series [1], the activity at 10 µg/mL was 71%.
Consider `Cc1cc(C)c2c(c1)C(=O)CSC2C(=O)Nc1ccc(Cl)cc1` (stereo not drawn) [Example 153], for which the activity at 10 µg/mL in series [1] (setting [3]) was determined as 63%.
Regarding `Cc1cc2c(cc1C)C(C(=O)Nc1ccc(Cl)c(Cl)c1)SCC2=O` (stereo not drawn) [Example 155], the activity at 10 µg/mL in series [1] (setting [3]) was 80%.
Still for that read-out and setting: next, `Cc1cc2c(cc1C)C(C(=O)Nc1ccc(C)c(Cl)c1)SCC2=O` (stereo not drawn) [Example 157]: 71%.
As to `COP(=O)(OC)c1ccc(NC(=O)C2SCC(=O)c3cc(C)c(C)cc32)cc1` (stereo not drawn) [Example 160], the activity at 10 µg/mL in series [1] is 54%.
For the compound `CCOP(=O)(OCC)c1ccc(NC(=O)C2SCC(=O)c3cc(C)c(C)cc32)cc1` (stereo not drawn) [Example 161], the activity at 10 µg/mL in series [1] worked out at 50%. In series [2] (setting [4]), this compound had an Ashes of 83.7 mg. The same compound registered a Dry weight in series [2] (setting [5]) of 127.5 mg.
Take `CCOP(=O)(Cc1ccc(NC(=O)C2SCC(=O)c3cc(C)c(C)cc32)cc1)OCC` (stereo not drawn) [Example 163]: the activity at 10 µg/mL in series [1] came to 50%. In series [2] (setting [4]), this compound yielded an Ashes of 82.3 mg. Further, the Dry weight in series [2] (setting [5]) was found to be 127.6 mg.
Consider `O=C1CSC(C(=O)Nc2ccc(Cl)cc2)c2cc3c(cc21)CCC3` (stereo not drawn) [Example 183], for which the activity at 10 µg/mL in series [1] (setting [3]) was found to be 47%.
Consider `CCOP(=O)(Cc1cccc(NC(=O)C2SCC(=O)c3cc4c(cc32)CCCC4)c1)OCC` (stereo not drawn) [Example 191], for which, in series [1], the activity at 10 µg/mL was 58%.
On to `CCOP(=O)(OCC)c1ccc(NC(=O)C2SCC(=O)c3cc4c(cc32)CCCCC4)cc1` (stereo not drawn) [Example 198], for which the activity at 10 µg/mL in series [1] was found to be 62%.
Regarding `CCOP(=O)(NC(=O)C1SCC(=O)c2cc(C3CCCCC3)ccc21)OCC` (stereo not drawn) [Example 201, 6-cyclohexyl-N-diethoxyphosphoryl-3,4-dihyiro-1H-2-benzothiopyran-4-one-1-carboxamide], in series [1], the activity at 10 µg/mL was determined as 65%.

Source of the values: patent US5071841A, “Sulfur-containing heterocyclic compounds useful for the treatment of osteoporosis, and their production” (priority 1988, dated 1991).
